From ChEMBL document CHEMBL5120826, “Effects of β-lapachone and β-nor-lapachone on multidrug efflux transporters and biofilms of Candida glabrata” (Bioorg Med Chem, 2022) come the findings set out here.

Values after ≈ are worked out from the molar mass of the structure shown. Active and inactive are the calls of the source. No cut-off for these calls is given here.

For orientation: MIC means the least concentration at which growth counts as inhibited.

Test [1] concerns Saccharomyces cerevisiae. Description: Antifungal activity against fluconazole resistant Saccharomyces cerevisiae overexpressing CgCdr1p transporter assessed as reduction in fungal growth at lower concentration incubated for 48 hrs by serial dilution method. Format: functional, organism-based.
For test [2], the system named is Saccharomyces cerevisiae. In words: Indifferent antifungal activity against fluconazole resistant Saccharomyces cerevisiae overexpressing CgCdr2p transporter assessed as fractional inhibitory concentration in presence of fluconazole incubated for 48 hrs by checkboard assay based microplate reader analysis. Format: functional.
The test system of test [3] is Saccharomyces cerevisiae. In words: Indifferent antifungal activity against fluconazole resistant Saccharomyces cerevisiae overexpressing CgCdr2p transporter assessed as fractional inhibitory concentration incubated for 48 hrs in presence of lapachone by checkboard assay based microplate reader analysis. Format: functional.
Test [4] concerns Saccharomyces cerevisiae. In words: Indifferent antifungal activity against fluconazole resistant Saccharomyces cerevisiae overexpressing CgCdr1p transporter assessed as fractional inhibitory concentration index incubated for 48 hrs by checkboard assay based microplate reader analysis. Type of test: functional.
In test [5] the test system is Saccharomyces cerevisiae. In words: Antifungal activity against fluconazole resistant Saccharomyces cerevisiae overexpressing CgCdr2p transporter assessed as reduction in fungal growth incubated for 48 hrs by checkboard assay based microplate reader analysis. Format: functional.
For test [6], the system named is Saccharomyces cerevisiae. Description: Indifferent antifungal activity against fluconazole resistant Saccharomyces cerevisiae overexpressing CgCdr2p transporter assessed as reduction in fungal growth incubated for 48 hrs in presence of fluconazole by checkboard assay based microplate reader analysis. Type of test: functional.
Test [7] has as its system Saccharomyces cerevisiae. In words: Indifferent antifungal activity against fluconazole resistant Saccharomyces cerevisiae overexpressing CgCdr2p transporter assessed as fractional inhibitory concentration index incubated for 48 hrs by checkboard assay based microplate reader analysis. Format: functional.
In test [8] the test system is Saccharomyces cerevisiae. Description: Indifferent antifungal activity against fluconazole resistant Saccharomyces cerevisiae overexpressing CgCdr2p transporter assessed as reduction in fungal growth incubated for 48 hrs in presence of lapachone by checkboard assay based microplate reader analysis. Format: functional.
Test [9] has as its system Saccharomyces cerevisiae. In words: Indifferent antifungal activity against fluconazole resistant Saccharomyces cerevisiae overexpressing CgCdr1p transporter assessed as fractional inhibitory concentration in presence of fluconazole incubated for 48 hrs by checkboard assay based microplate reader analysis. Type of test: functional.
Test [10] has as its system Saccharomyces cerevisiae. In words: Indifferent antifungal activity against fluconazole resistant Saccharomyces cerevisiae overexpressing CgCdr1p transporter assessed as reduction in fungal growth incubated for 48 hrs in presence of lapachone by checkboard assay based microplate reader analysis. Format: functional.
Test [11] concerns Saccharomyces cerevisiae. In words: Indifferent antifungal activity against fluconazole resistant Saccharomyces cerevisiae overexpressing CgCdr1p transporter assessed as fractional inhibitory concentration incubated for 48 hrs in presence of lapachone by checkboard assay based microplate reader analysis. Type of test: functional.
Test [12] has as its system Saccharomyces cerevisiae. Description: Antifungal activity against fluconazole resistant Saccharomyces cerevisiae overexpressing CgCdr1p transporter assessed as reduction in fungal growth incubated for 48 hrs by checkboard assay based microplate reader analysis. Type of test: functional.
Test [13] concerns Saccharomyces cerevisiae. In words: Indifferent antifungal activity against fluconazole resistant Saccharomyces cerevisiae overexpressing CgCdr1p transporter assessed as reduction in fungal growth incubated for 48 hrs in presence of fluconazole by checkboard assay based microplate reader analysis. Type of test: functional.

For `OC(Cn1cncn1)(Cn1cncn1)c1ccc(F)cc1F`, the outcome in the test on Saccharomyces cerevisiae [1] was Active.

As to `CC1(C)CC2=C(O1)C(=O)c1ccccc1C2=O`, the FIC in the test with Saccharomyces cerevisiae [2], with Saccharomyces cerevisiae [3], in the test with Saccharomyces cerevisiae [9] and in the test on Saccharomyces cerevisiae [11] was 1 µg/mL throughout. Also, the “fractional inhibitory concentration index (FICI)” value in the test with Saccharomyces cerevisiae [4] and with Saccharomyces cerevisiae [7] was 2 each time. The minimum inhibitory concentration (MIC) is 12.5 µg/mL (≈ 54.8 µM) in the test on Saccharomyces cerevisiae [5]; 62.5 µg/mL in the test on Saccharomyces cerevisiae [6]; 12.5 µg/mL in the test with Saccharomyces cerevisiae [8]; above 100 µg/mL in the test on Saccharomyces cerevisiae [10]; above 100 µg/mL in the test on Saccharomyces cerevisiae [12]; 500 µg/mL in the test with Saccharomyces cerevisiae [13].

Consider `CC1(C)CCC2=C(O1)C(=O)c1ccccc1C2=O` [ALPHA-LAPACHONE], for which the FIC in the test on Saccharomyces cerevisiae [2], in the test with Saccharomyces cerevisiae [3], in the test with Saccharomyces cerevisiae [9] and with Saccharomyces cerevisiae [11] was 1 µg/mL in each case. Moreover, the “fractional inhibitory concentration index (FICI)” value with Saccharomyces cerevisiae [4] and in the test on Saccharomyces cerevisiae [7] was 2 throughout. The minimal inhibitory concentration (MIC) with Saccharomyces cerevisiae [5] was above 62.5 µg/mL; in the test with Saccharomyces cerevisiae [6] it was 62.5 µg/mL; in the test with Saccharomyces cerevisiae [8], above 100 µg/mL; in the test on Saccharomyces cerevisiae [10] it was above 100 µg/mL; with Saccharomyces cerevisiae [12], above 100 µg/mL; in the test with Saccharomyces cerevisiae [13] it was 500 µg/mL.
